One experiment concerns the target T1, mERα (Oryzias latipes, UniProt P50241).
T1 sequence (P50241 1-620): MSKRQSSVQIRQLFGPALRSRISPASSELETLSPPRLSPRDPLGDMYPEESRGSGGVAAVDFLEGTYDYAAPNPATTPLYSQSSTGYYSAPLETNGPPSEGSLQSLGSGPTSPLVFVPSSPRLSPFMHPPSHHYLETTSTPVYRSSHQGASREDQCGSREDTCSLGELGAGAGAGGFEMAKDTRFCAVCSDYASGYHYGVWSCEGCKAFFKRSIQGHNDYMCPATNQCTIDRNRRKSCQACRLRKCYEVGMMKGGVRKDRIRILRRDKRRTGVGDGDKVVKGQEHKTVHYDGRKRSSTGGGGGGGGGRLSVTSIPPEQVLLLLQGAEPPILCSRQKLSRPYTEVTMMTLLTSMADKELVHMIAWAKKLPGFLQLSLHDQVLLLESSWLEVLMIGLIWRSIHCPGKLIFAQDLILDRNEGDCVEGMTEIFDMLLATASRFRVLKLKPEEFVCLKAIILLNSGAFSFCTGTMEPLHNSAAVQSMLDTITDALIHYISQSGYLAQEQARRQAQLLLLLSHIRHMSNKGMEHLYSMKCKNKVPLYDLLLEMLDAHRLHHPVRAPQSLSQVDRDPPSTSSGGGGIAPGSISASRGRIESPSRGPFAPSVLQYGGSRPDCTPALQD
Kind of experiment: biochemical. It counts as binding, medaka.

The test system of experiment [1] is hepatic gene expression in male Japanese medaka. Put plainly: Medaka 7-day waterborne exposure, hepatic gene expression by qPCR. The experiment is classed as in vivo, Japanese medaka (Oryzias latipes).
The target of another experiment is T2, mERβ2 (Oryzias latipes, UniProt B1B6T4).
T2 sequence (B1B6T4 1-542): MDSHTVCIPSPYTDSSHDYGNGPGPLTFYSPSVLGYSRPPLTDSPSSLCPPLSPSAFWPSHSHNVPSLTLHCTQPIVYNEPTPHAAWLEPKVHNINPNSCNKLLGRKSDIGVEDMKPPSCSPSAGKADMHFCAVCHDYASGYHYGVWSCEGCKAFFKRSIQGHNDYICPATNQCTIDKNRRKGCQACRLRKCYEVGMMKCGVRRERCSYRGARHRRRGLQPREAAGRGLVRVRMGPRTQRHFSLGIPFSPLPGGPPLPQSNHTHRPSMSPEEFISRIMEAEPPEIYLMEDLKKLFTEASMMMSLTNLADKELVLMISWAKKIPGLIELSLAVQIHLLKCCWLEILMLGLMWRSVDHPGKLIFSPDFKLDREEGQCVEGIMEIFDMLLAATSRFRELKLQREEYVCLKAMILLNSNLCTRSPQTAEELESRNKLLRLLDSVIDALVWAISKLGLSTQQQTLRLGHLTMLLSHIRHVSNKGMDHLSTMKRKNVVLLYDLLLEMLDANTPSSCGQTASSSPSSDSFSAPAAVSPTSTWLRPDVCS
Kind of experiment: Competitive ligand binding assay. Details: species or system medaka. Particulars: for RBA (%) mERβ2: ratio of IC50 of E2β to IC50 of competitor.

A further experiment concerns the target T3, mERβ1 (Oryzias latipes, UniProt A0ACM8PZQ7).
T3 sequence (A0ACM8PZQ7 1-562): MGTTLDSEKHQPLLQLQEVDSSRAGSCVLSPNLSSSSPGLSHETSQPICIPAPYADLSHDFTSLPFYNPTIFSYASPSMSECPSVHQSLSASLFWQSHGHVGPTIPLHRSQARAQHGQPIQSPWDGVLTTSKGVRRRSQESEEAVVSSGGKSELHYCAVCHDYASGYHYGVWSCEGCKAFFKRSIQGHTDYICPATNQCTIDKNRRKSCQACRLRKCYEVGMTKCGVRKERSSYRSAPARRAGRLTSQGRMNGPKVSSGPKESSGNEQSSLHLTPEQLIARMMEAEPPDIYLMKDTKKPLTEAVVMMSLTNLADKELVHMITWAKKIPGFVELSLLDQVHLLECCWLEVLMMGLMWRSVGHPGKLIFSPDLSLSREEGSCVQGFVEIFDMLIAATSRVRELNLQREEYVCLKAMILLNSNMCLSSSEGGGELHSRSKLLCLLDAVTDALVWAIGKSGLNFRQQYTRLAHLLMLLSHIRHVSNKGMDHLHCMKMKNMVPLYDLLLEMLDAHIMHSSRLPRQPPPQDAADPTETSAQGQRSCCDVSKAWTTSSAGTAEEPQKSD
Kind of experiment: Competitive ligand binding assay. Details: species or system medaka. The note with it: for RBA (%) mERβ1: ratio of IC50 of E2β to IC50 of competitor.

The subject of a further experiment is hERα and hERβ. Put plainly: T47D-KBluc estrogen screening assay, luciferase reporter. Particulars: YES-calibrated stock solutions.
The next experiment deals with mERα, mERβ1, and mERβ2. Kind of experiment: Ligand binding assays, comparison of affinity across mER subtypes. Set-up: species or system medaka. Particulars: from IC50 of competitive binding.
Where [2] appears, read: male medaka liver, 7 days, YES-derived EEQ 0.64 nM, relative to negative control.
The mark [3] stands for this setting: liver of E2β-exposed male medaka, mERα expression as calibrator.

Results on four compounds are retold here after publication PMC4014147 (Environmental Science & Technology, 2014).

Molecules are shown by their SMILES.

The compound `C[C@]12CC[C@@H]3c4ccc(O)cc4CC[C@H]3[C@@H]1CCC2=O` [E1, estrone] returned a 50% inhibitory concentration (IC50) against mERα of 8.4 nM. Further, at mERα (ratio of IC50 of E2β to IC50 of competitor), the “RBA (%) mERα” value was 36.7%. This compound also returned a mERα induction in experiment [1] (setting [2]) of 56 fold. Moreover, on mERβ2, the 50% inhibitory concentration (IC50) amounted to 14.4 nM and the “RBA (%) mERβ2” value came to 14.6%. For the same compound, at mERβ1, the IC50 came out at 14.4 nM and the “RBA (%) mERβ1” value stood at 12.6%. Further, in the experiment on hERα and hERβ, the “more potent in the T47D-KBluc versus the YES” value is “slightly more potent”.
On to `C[C@]12CC[C@@H]3c4ccc(O)cc4CC[C@H]3[C@@H]1CC[C@H]2O` [E2α, 17α-estradiol], for which the mERα induction in experiment [1] (setting [2]) was 24 fold. In addition, on mERβ2, the IC50 amounted to 31.1 nM and the “RBA (%) mERβ2” value amounted to 6.8%. Moreover, on mERβ1, the 50% inhibitory concentration (IC50) turned out to be 18.8 nM and the “RBA (%) mERβ1” value came out at 9.6%. Further, the “potency less in the T47D-KBluc versus the YES” value in the experiment with hERα and hERβ was determined as 3.3 fold.
As to `C[C@]12CC[C@@H]3c4ccc(O)cc4CC[C@H]3[C@@H]1CC[C@@H]2O` [E2β, 17β-estradiol], in experiment [1] (setting [3]), the “mERα expression above mERβ1” value is listed as 23 fold and the “mERα expression above mERβ2” value is on record as 5 fold. For the same compound, in experiment [1] (setting [2]), the Chg-H gene induction was 12,730 fold, the Chg-Hm gene induction is listed as 3,796 fold, the Chg-L gene induction worked out at 324 fold and the Vtg-1 gene induction is on record as 27,004 fold. In addition, in experiment [1] (setting [2]), the Vtg-2 gene induction is 73,735 fold and the mERα induction was determined as 72 fold. Besides, at mERβ2, the half-inhibitory concentration (IC50) was 2.1 nM and the “RBA (%) mERβ2” value is given as 100.0%. For the same compound, at mERβ1, the IC50 was 1.8 nM and the “RBA (%) mERβ1” value is 100.0%.
Take `C[C@]12CC[C@@H]3c4ccc(O)cc4CC[C@H]3[C@@H]1C[C@@H](O)[C@@H]2O` [E3, estriol]: the mERα induction in experiment [1] (setting [2]) was found to be 67 fold. For the same compound, at mERβ2, the IC50 amounted to 34.2 nM and the “RBA (%) mERβ2” value came out at 6.1%. Besides, in the experiment on mERα, mERβ1, and mERβ2, the “higher affinity for mERβ1 versus mERβ2” value was found to be 1.9 fold. Besides, at mERβ1, the half-inhibitory concentration (IC50) was determined as 18.1 nM and the “RBA (%) mERβ1” value is recorded as 10.0%. Besides, the “more potent in the T47D-KBluc versus the YES” value with hERα and hERβ is “approximately 10 fold”.

A word on the IC50: it is the midpoint of a concentration-inhibition curve.
